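Protocol summary: plate cells (96-well), add compound at 5 concentrations, incubate 48 h, interpolate endpoints linearly. TGI is the concentration that stops growth completely.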
Experiments:
Experiment in all cases: inhibition of tumour cell growth, NCI panel, 48 h
786-0 renal = system: 786-0 renal
A498 renal = system: A498 renal
A549 NSCLC = system: A549 NSCLC
ACHN renal = system: ACHN renal
CAKI-1 renal = system: CAKI-1 renal
CCRF-CEM leukemia = system: CCRF-CEM leukemia
COLO 205 colon = system: COLO 205 colon
DU-145 prostate = system: DU-145 prostate
EKVX NSCLC = system: EKVX NSCLC
HCC-2998 colon = system: HCC-2998 colon
HCT-116 colon = system: HCT-116 colon
HCT-15 colon = system: HCT-15 colon
HL-60(TB) leukemia = system: HL-60(TB) leukemia
HOP-62 NSCLC = system: HOP-62 NSCLC
HOP-92 NSCLC = system: HOP-92 NSCLC
HS 578T breast = system: HS 578T breast
HT29 colon = system: HT29 colon
IGROV1 ovarian = system: IGROV1 ovarian
K-562 leukemia = system: K-562 leukemia
KM12 colon = system: KM12 colon
LOX IMVI melanoma = system: LOX IMVI melanoma
M14 melanoma = system: M14 melanoma
MALME-3M melanoma = system: MALME-3M melanoma
MCF7 breast = system: MCF7 breast
MDA-MB-231 breast = system: MDA-MB-231 breast
MDA-MB-435 = system: MDA-MB-435
MDA-N = system: MDA-N
MOLT-4 leukemia = system: MOLT-4 leukemia
NCI-H226 lung = system: NCI-H226 lung
NCI-H23 lung = system: NCI-H23 lung
NCI-H460 lung = system: NCI-H460 lung
NCI-H522 lung = system: NCI-H522 lung
NCI/ADR-RES ovarian = system: NCI/ADR-RES ovarian
OVCAR-3 ovarian = system: OVCAR-3 ovarian
OVCAR-4 ovarian = system: OVCAR-4 ovarian
OVCAR-5 ovarian = system: OVCAR-5 ovarian
OVCAR-8 ovarian = system: OVCAR-8 ovarian
PC-3 prostate = system: PC-3 prostate
RPMI-8226 leukemia = system: RPMI-8226 leukemia
RXF 393 renal = system: RXF 393 renal
SF-268 CNS = system: SF-268 CNS
SF-295 CNS = system: SF-295 CNS
SF-539 CNS = system: SF-539 CNS
SK-MEL-2 melanoma = system: SK-MEL-2 melanoma
SK-MEL-28 melanoma = system: SK-MEL-28 melanoma
SK-MEL-5 melanoma = system: SK-MEL-5 melanoma
SK-OV-3 ovarian = system: SK-OV-3 ovarian
SN12C renal = system: SN12C renal
SNB-19 CNS = system: SNB-19 CNS
SNB-75 CNS = system: SNB-75 CNS
SR leukemia = system: SR leukemia
SW-620 colon = system: SW-620 colon
T-47D breast = system: T-47D breast
TK-10 renal = system: TK-10 renal
U251 CNS = system: U251 CNS
UACC-257 melanoma = system: UACC-257 melanoma
UACC-62 melanoma = system: UACC-62 melanoma
UO-31 renal = system: UO-31 renal
BT-549 breast = system: BT-549 breast

Nc1ncnc2c1ncn2C1OC(CO)C2OC21 (configuration not stated)
TGI (786-0 renal): > 10 µM | TGI (A498 renal): > 100 µM | TGI (A549 NSCLC): > 100 µM | TGI (ACHN renal): > 100 µM | TGI (CAKI-1 renal): > 100 µM | TGI (CCRF-CEM leukemia): > 100 µM | TGI (COLO 205 colon): > 100 µM | TGI (DU-145 prostate): > 100 µM | TGI (EKVX NSCLC): > 100 µM | TGI (HCC-2998 colon): > 100 µM | TGI (HCT-116 colon): > 100 µM | TGI (HCT-15 colon): > 10 µM | TGI (HL-60(TB) leukemia): > 100 µM | TGI (HOP-62 NSCLC): > 100 µM | TGI (HOP-92 NSCLC): > 100 µM | TGI (HS 578T breast): > 100 µM | TGI (HT29 colon): > 100 µM | TGI (IGROV1 ovarian): > 100 µM | TGI (K-562 leukemia): > 100 µM | TGI (KM12 colon): > 100 µM | TGI (LOX IMVI melanoma): > 100 µM | TGI (M14 melanoma): > 10 µM | TGI (MALME-3M melanoma): > 10 µM | TGI (MCF7 breast): > 100 µM | TGI (MDA-MB-231 breast): > 100 µM | TGI (MDA-MB-435): > 10 µM | TGI (MDA-N): > 10 µM | TGI (MOLT-4 leukemia): > 100 µM | TGI (NCI-H226 lung): > 100 µM | TGI (NCI-H23 lung): > 100 µM | TGI (NCI-H460 lung): > 10 µM | TGI (NCI-H522 lung): > 100 µM | TGI (NCI/ADR-RES ovarian): > 10 µM | TGI (OVCAR-3 ovarian): > 10 µM | TGI (OVCAR-4 ovarian): > 100 µM | TGI (OVCAR-5 ovarian): > 100 µM | TGI (OVCAR-8 ovarian): > 100 µM | TGI (PC-3 prostate): > 100 µM | TGI (RPMI-8226 leukemia): > 100 µM | TGI (RXF 393 renal): > 100 µM | TGI (SF-268 CNS): > 100 µM | TGI (SF-295 CNS): > 100 µM | TGI (SF-539 CNS): > 100 µM | TGI (SK-MEL-2 melanoma): > 100 µM | TGI (SK-MEL-28 melanoma): > 100 µM | TGI (SK-MEL-5 melanoma): > 100 µM | TGI (SK-OV-3 ovarian): > 100 µM | TGI (SN12C renal): > 100 µM | TGI (SNB-19 CNS): > 100 µM | TGI (SNB-75 CNS): > 100 µM | TGI (SR leukemia): > 100 µM | TGI (SW-620 colon): > 100 µM | TGI (T-47D breast): > 100 µM | TGI (TK-10 renal): > 100 µM | TGI (U251 CNS): > 100 µM | TGI (UACC-257 melanoma): > 100 µM | TGI (UACC-62 melanoma): > 100 µM | TGI (UO-31 renal): > 100 µM

COC(=O)C1(C(=O)OC)N=C(C)OC1c1ccoc1 (configuration not stated)
TGI (786-0 renal): > 100 µM | TGI (A498 renal): > 100 µM | TGI (A549 NSCLC): > 100 µM | TGI (ACHN renal): > 100 µM | TGI (BT-549 breast): > 100 µM | TGI (CAKI-1 renal): > 100 µM | TGI (CCRF-CEM leukemia): > 100 µM | TGI (COLO 205 colon): > 100 µM | TGI (DU-145 prostate): > 100 µM | TGI (EKVX NSCLC): > 100 µM | TGI (HCC-2998 colon): > 100 µM | TGI (HCT-116 colon): > 100 µM | TGI (HCT-15 colon): > 100 µM | TGI (HL-60(TB) leukemia): > 100 µM | TGI (HOP-62 NSCLC): > 100 µM | TGI (HOP-92 NSCLC): > 100 µM | TGI (K-562 leukemia): > 100 µM | TGI (KM12 colon): > 100 µM | TGI (LOX IMVI melanoma): > 100 µM | TGI (M14 melanoma): > 100 µM | TGI (MCF7 breast): > 100 µM | TGI (MDA-MB-435): > 100 µM | TGI (MDA-N): > 100 µM | TGI (MOLT-4 leukemia): > 100 µM | TGI (NCI-H226 lung): > 100 µM | TGI (NCI-H23 lung): > 100 µM | TGI (NCI-H460 lung): > 100 µM | TGI (NCI/ADR-RES ovarian): > 100 µM | TGI (OVCAR-3 ovarian): > 100 µM | TGI (OVCAR-4 ovarian): > 100 µM | TGI (OVCAR-5 ovarian): > 100 µM | TGI (OVCAR-8 ovarian): > 100 µM | TGI (PC-3 prostate): > 100 µM | TGI (RPMI-8226 leukemia): > 100 µM | TGI (RXF 393 renal): > 100 µM | TGI (SF-295 CNS): > 100 µM | TGI (SK-MEL-2 melanoma): > 100 µM | TGI (SK-MEL-28 melanoma): > 100 µM | TGI (SK-MEL-5 melanoma): > 100 µM | TGI (SK-OV-3 ovarian): > 100 µM | TGI (SN12C renal): > 100 µM | TGI (SNB-19 CNS): > 100 µM | TGI (SNB-75 CNS): > 100 µM | TGI (SR leukemia): > 100 µM | TGI (SW-620 colon): > 100 µM | TGI (T-47D breast): > 100 µM | TGI (TK-10 renal): > 100 µM | TGI (U251 CNS): > 100 µM | TGI (UACC-257 melanoma): > 100 µM | TGI (UACC-62 melanoma): > 100 µM | TGI (UO-31 renal): > 100 µM

Cc1cc2nn(C3CCCO3)nc2cc1C (configuration not stated)
TGI (786-0 renal): > 100 µM | TGI (A498 renal): > 100 µM | TGI (A549 NSCLC): > 100 µM | TGI (CAKI-1 renal): > 100 µM | TGI (CCRF-CEM leukemia): > 100 µM | TGI (COLO 205 colon): > 100 µM | TGI (DU-145 prostate): > 100 µM | TGI (EKVX NSCLC): > 100 µM | TGI (HCC-2998 colon): > 100 µM | TGI (HCT-116 colon): > 100 µM | TGI (HCT-15 colon): > 100 µM | TGI (HOP-62 NSCLC): > 100 µM | TGI (HS 578T breast): > 100 µM | TGI (HT29 colon): > 100 µM | TGI (IGROV1 ovarian): > 100 µM | TGI (K-562 leukemia): > 100 µM | TGI (M14 melanoma): > 100 µM | TGI (MALME-3M melanoma): > 100 µM | TGI (MCF7 breast): > 100 µM | TGI (MDA-MB-231 breast): > 100 µM | TGI (MDA-MB-435): > 100 µM | TGI (MDA-N): > 100 µM | TGI (MOLT-4 leukemia): > 100 µM | TGI (NCI-H226 lung): > 100 µM | TGI (NCI-H23 lung): > 100 µM | TGI (NCI-H460 lung): > 100 µM | TGI (NCI-H522 lung): > 100 µM | TGI (NCI/ADR-RES ovarian): > 100 µM | TGI (OVCAR-3 ovarian): > 100 µM | TGI (OVCAR-4 ovarian): > 100 µM | TGI (OVCAR-5 ovarian): > 100 µM | TGI (OVCAR-8 ovarian): > 100 µM | TGI (PC-3 prostate): > 100 µM | TGI (RXF 393 renal): > 100 µM | TGI (SF-268 CNS): > 100 µM | TGI (SF-295 CNS): > 100 µM | TGI (SF-539 CNS): > 100 µM | TGI (SK-MEL-2 melanoma): > 100 µM | TGI (SK-MEL-5 melanoma): > 100 µM | TGI (SK-OV-3 ovarian): > 100 µM | TGI (SN12C renal): > 100 µM | TGI (SNB-75 CNS): > 100 µM | TGI (SR leukemia): > 100 µM | TGI (T-47D breast): > 100 µM | TGI (TK-10 renal): > 100 µM | TGI (U251 CNS): > 100 µM | TGI (UACC-257 melanoma): > 100 µM | TGI (UACC-62 melanoma): > 100 µM
